One data set has as its system U266 cells. The data set can be described thus: In situ activation of β-ketoacid 11a by EpnF, cell viability, CellTitre-Glo, 48 h. The note with it: U266, 48 h. Type of data set: cell-based. On the procedure: For in situ activation of β-ketoacid 11a by EpnF, U266 cells were seeded in a 96-well plate as above, at 20,000 cells per well in […] RPMI. Recombinant EpnF (100 μM in EpnF Buffer) was diluted in RPMI to 5 μM concentration (300 μL final volume), then 10 μL of this enzyme solution was added to the plate wells to 0.5 μM EpnF final concentration. Stock solutions (20 mM) of β-ketoacid 11a and epoxyketone 12a in EtOH or DMSO, respectively, were diluted to 5% EtOH or DMSO in RPMI to provide working stocks at 1 mM. The working stocks were log-diluted to 1 mM-0.05 μM using RPMI containing 5% EtOH or 5% DMSO, respectively. Aliquots of compounds (10 μL) were added to the sample wells for final concentrations of 100-0.005 μM. Separate negative control wells were treated with 10 μL of 5% EtOH or 5% DMSO in RPMI (0.5% final concentration). The cells were incubated for 48 hr, then cell viability was measured with the CellTitre-Glo assay. Results of compound-treated wells were normalized to negative control wells.

The target of a further data set is EpnF (Streptomyces hygroscopicus, UniProt V5RMU9). The data set can be described thus: Enzyme kinetic analysis by SPE-MS/MS assay. Type of data set: biochemical. To be noted: relative to 11n. Here is the method:
SPE-MS/MS analyses were carried out on an Agilent RapidFire 365 High-Throughput Mass Spectrometry System with 6495 triple quadrupole mass spectrometer. Determination of initial velocity: EpnF stock at 100 μM was diluted 10-fold in EpnF Buffer to a 10 μM working solution, which was further diluted to 8 concentrations (10-0.005 μM) in EpnF Buffer (intermediate volume 1350 μL, concentrations calculated for 1500 μL theoretical final volume corresponding to addition of substrate solutions below). The 8 EpnF enzyme dilutions were aliquoted (90 μL) into the corresponding 8 tubes of PCR tube strips (12 strips, one per time point; Thermo Scientific, AB-2000). The β-ketoacid 11 (20 mM in EtOH) was diluted to 10 μM in EpnF Buffer, then 10 μL of this solution was added to each of the tubes (1 μM final concentration, 100 μL final volume) to initiate the reaction. Samples were incubated in a heated shaker at 37° C. and 225 rpm for up to 120 min, and one tube strip was removed at each time point. Each tube was quenched with 5% formic acid in EpnF Buffer (100 μL), pipetted vigorously, and flash frozen on dry ice. Samples were thawed then centrifuged to precipitate protein and transferred to a conical-bottom 96-well plate (Thermo Scientific/Nunc, 249944) for SPE-MS/MS analysis. Measurement of Km and Vmax: Using the data from the initial velocity experiments above, an appropriate EpnF enzyme concentration was selected for each β-ketoacid 11 at which the rate of conversion to the epoxyketone 12 remained linear at 10 min (0.50 μM for 11n and 0.05 μM for all other substrates). Each substrate (20 mM in EtOH) was diluted to 1 mM in EpnF Buffer, then diluted to 8 concentrations (100-0.5 μM) in EpnF Buffer (intermediate volume 1350 μL, concentrations calculated for 1500 μL theoretical volume corresponding to addition of enzyme solutions below). The 8 substrate dilutions were aliquoted (90 μL) into the corresponding 8 tubes of PCR tube strips (12 strips, one per time point; Thermo Scientific, AB-2000). The EpnF enzyme stock solution was diluted in EpnF Buffer to the appropriate concentration for each substrate, then 10 μL of this solution was added to each of the tubes (100 μL final volume) to initiate the reaction. For the 0-min time point, 5% formic acid in EpnF Buffer was added to the β-ketoacid substrate before addition of the enzyme. Samples were incubated in a heated shaker at 37° C. and 225 rpm for up to 10 min, and one tube strip was removed at each time point. Each tube was quenched by addition of 5% formic acid in EpnF Buffer (100 μL), pipetted vigorously, and flash frozen on dry ice. Samples were thawed then centrifuged to precipitate proteins and the supernatants were transferred to a conical-bottom 96-well plate (Thermo Scientific/Nunc, 249944) for SPE-MS/MS analysis. Km and Vmax values for each substrate were calculated by Michaelis-Menten analysis. To obtain a quantitative assessment of EpnF substrate specificity, we developed a kinetic assay (10 min) using SPE-MS/MS (solid-phase extraction/triple quadrupole mass spectrometry; Agilent RapidFire 365 with 6495 MS) to enable direct detection of both substrates and products.

Data set [1] in a line: Stability of β-ketoacid substrates (decarboxylation, 1H-NMR or SPE-MS/MS). The data set is classed as physicochemical. Here is the method: To assess rates of decarboxylation under conditions relevant to storage, biochemical assays, and cellular assays, we investigated the stability of eponemycin-based β-ketoacids 11a and 11c under a variety of conditions as shown in below Table C.
For samples stored neat, β-ketoacid 11 (lyophilized powder) was aliquoted into 1.5-2 mg samples in glass vials and placed under Ar. Samples were stored on the bench top (20-25° C.), in at 4° C. refrigerator or in a −20° C. freezer. At each time point, an entire aliquot was dissolved in CD3OD (600 μL) analyzed by ^1H-NMR for decarboxylation to the corresponding isopropyl ketone byproduct 22. The degree of decarboxylation was determined by comparing integrations of two singlet peaks at 1.40 and 1.33 ppm, arising from the α,α-dimethyl groups in the β-ketoacid 11, to two doublet peaks at 1.09 and 1.06 ppm, arising from the isopropyl methyl groups in the decarboxylation product 22. A septuplet corresponding to the methine proton of the isopropyl group was also observed at 2.91 ppm.
For samples stored in PBS, aliquots of β-ketoacid 11 were dissolved in deuterated PBS (600 μL) and incubated in a 37° C. shaking incubator. At each time point, one aliquot was removed and analyzed by ^1H-NMR as above. NMR changes observed in deuterated PBS were similar to those observed in CD3OD above.
For samples stored in RPMI, β-ketoacid 11 (lyophilized powder) was dissolved in EtOH to a working stock concentration of 20 mM. The sample was diluted in RPMI to 100 μM (1000 μL) and incubated at 37° C. At each time point, an aliquot (50 μL) was removed from the master sample, transferred to a 96-well plate, quenched with 4 vol MeOH, centrifuged at 4,000 g to precipitate debris, and immediately analyzed by SPE-MS/MS to quantitate β-ketoacid 11 remaining.

Chain of EpnF (V5RMU9 entry or part of it): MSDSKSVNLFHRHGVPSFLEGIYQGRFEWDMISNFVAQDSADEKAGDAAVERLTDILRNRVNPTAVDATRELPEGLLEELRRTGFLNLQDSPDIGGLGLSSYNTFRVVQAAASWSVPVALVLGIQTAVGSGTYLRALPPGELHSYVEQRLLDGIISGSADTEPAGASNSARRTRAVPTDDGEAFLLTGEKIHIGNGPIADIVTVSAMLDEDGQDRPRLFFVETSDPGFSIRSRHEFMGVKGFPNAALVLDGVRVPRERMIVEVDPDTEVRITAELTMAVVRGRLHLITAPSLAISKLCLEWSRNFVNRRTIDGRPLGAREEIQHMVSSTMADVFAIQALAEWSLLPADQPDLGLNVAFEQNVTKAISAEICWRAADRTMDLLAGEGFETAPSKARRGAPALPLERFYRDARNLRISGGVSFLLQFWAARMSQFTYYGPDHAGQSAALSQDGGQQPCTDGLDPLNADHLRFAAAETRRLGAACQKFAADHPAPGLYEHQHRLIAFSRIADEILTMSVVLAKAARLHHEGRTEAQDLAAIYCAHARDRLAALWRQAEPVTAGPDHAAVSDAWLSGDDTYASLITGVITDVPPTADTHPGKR

For `CC(C)CCCCC(=O)N[C@@H](CO)C(=O)N[C@@H](CC(C)C)C(=O)C(C)(C)C(=O)O` [Compound 11a, (4S)-4-[(2S)-3-Hydroxy-2-(6-methylheptanamido)propanamido]-2,2,6-trimethyl-3-oxoheptanoic acid], the “cytotoxicity of β-ketoacid activated in situ” value with U266 cells (in presence of EpnF (0.5 μM)) was “cytotoxicity comparable to that of the corresponding isolated epoxyketone 12a”. For the same compound, the “no cytotoxicity at up to (concentration)” value in the data set with U266 cells (prodrug alone, absence of EpnF) was more than 100 µM. The “converted more efficiently than 11n” value at EpnF is “≈ 20 fold”. Also, in data set [1] (RPMI medium, RPMI, 37° C.), the half-life at 100 μM is 2.5 h. The half-life in data set [1] (deuterated PBS, PBS, 37° C.) was 4.5 h; in data set [1] (neat lyophilized powder, neat, 4° C.), more than 336 h; in data set [1] (neat lyophilized powder, neat, 25° C.), 120 h; in data set [1] (neat lyophilized powder, neat, −20° C.), more than 336 h. The “stability / rate of decarboxylation (in words)” value in data set [1] (neat at low temperatures, buffer or media at 37° C.) is recorded as “fairly stable when stored neat at low temperatures”. Besides, the “% remaining at last time point” value in data set [1] (neat, 4° C.) is listed as “d (80%)”; in data set [1] (neat, −20° C.) it was “d (95%)”.

What is called half-life is the time in which the quantity being followed falls by half. Read a high half-life as slow loss.
